Data on 11 compounds can be found in PubChem BioAssay (NCI).

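Grown in 96-well plates, cells were treated for 48 hours with each compound at five concentrations. Insufficient inhibition: endpoint recorded as highest concentration tested. GI50 marks 50% less growth. At the TGI there is no net growth.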 Bounds are passed on as bounds.

Test systems include SK-MEL-28 melanoma; TK-10 renal; SN12C renal; HS 578T breast; HOP-92 NSCLC; SW-620 colon; SK-MEL-5 melanoma; A498 renal; MOLT-4 leukemia; IGROV1 ovarian.
What all share (assay): DTP human tumour cell line panel, 48 h

One may read the GI50 as the concentration that inhibits growth by half. One may read the TGI as the concentration giving total growth inhibition. Higher therefore signals less potent growth arrest.

For the compound `COc1cc2ncc3c(nc4sccn43)c2cc1OC`, the GI50 in the assay with SK-MEL-28 melanoma is 28.9 µM; with TK-10 renal it was 11.1 µM; with SN12C renal it was 22.5 µM; in the assay with HS 578T breast it was 22.1 µM; in the assay on HOP-92 NSCLC, 15.8 µM; in the assay with SW-620 colon, 41.9 µM. For the same compound, the GI50 is 48.4 µM in the assay on SK-MEL-5 melanoma, 8.01 µM in the assay on A498 renal and 29.3 µM in the assay with MOLT-4 leukemia. In addition, the TGI is 95 µM with SK-MEL-28 melanoma; 29.5 µM in the assay with TK-10 renal; 89.3 µM in the assay with SN12C renal; greater than 100 µM with HS 578T breast; 39 µM in the assay with HOP-92 NSCLC; greater than 100 µM in the assay with SW-620 colon. Also, the TGI in the assay with SK-MEL-5 melanoma, with A498 renal and with MOLT-4 leukemia was greater than 100 µM in each case.
For the compound `Fc1cccc(F)c1C(Nc1nncs1)Nc1nncs1`, the TGI with SK-MEL-28 melanoma, with TK-10 renal, in the assay with SN12C renal, in the assay with HS 578T breast, in the assay with HOP-92 NSCLC and in the assay on SW-620 colon was greater than 100 µM throughout. Also, the TGI in the assay with IGROV1 ovarian, with SK-MEL-5 melanoma and in the assay on A498 renal was greater than 100 µM throughout.
As for `O=C(NNS(=O)(=O)c1ccc(Cl)cc1Cl)c1cccnc1Nc1ccc(Cl)cc1`, the GI50 in the assay with SK-MEL-28 melanoma was 35.4 µM; in the assay with TK-10 renal, 28.9 µM; with SN12C renal, 31.4 µM; in the assay with HS 578T breast, 17.8 µM; in the assay on HOP-92 NSCLC, 14.6 µM; in the assay with SW-620 colon, 28.4 µM. Also, the figures for the GI50 in the assay with SK-MEL-5 melanoma, in the assay with A498 renal and in the assay with MOLT-4 leukemia were 14.2 µM, 25 µM and 19.6 µM, respectively. The TGI in the assay with SK-MEL-28 melanoma is greater than 100 µM; in the assay on TK-10 renal, 84.3 µM; in the assay with SN12C renal, greater than 100 µM; in the assay with HS 578T breast, 41.8 µM; in the assay with HOP-92 NSCLC it was 40.7 µM; in the assay with SW-620 colon, greater than 100 µM. The TGI in the assay on SK-MEL-5 melanoma turned out to be 29.7 µM; in the assay with A498 renal, 47.9 µM; in the assay with MOLT-4 leukemia it was 58.2 µM.
For `C[C@@H]1O[C@@H](O[C@@H]2[C@@H](O)[C@H](OCCc3ccc(O)c(O)c3)O[C@H](CO)[C@H]2OC(=O)/C=C/c2ccc(O)c(O)c2)[C@H](O)[C@H](OC2OC[C@](O)(CO)[C@H]2O)[C@H]1O` (stereo partly specified), the GI50 in the assay with SK-MEL-28 melanoma is greater than 100 µM; in the assay on TK-10 renal, greater than 100 µM; in the assay with SN12C renal, greater than 100 µM; in the assay on HS 578T breast it was greater than 100 µM; with SW-620 colon, 22.7 µM; with IGROV1 ovarian, greater than 100 µM. Further, the GI50 in the assay on SK-MEL-5 melanoma and in the assay on MOLT-4 leukemia was greater than 100 µM throughout. Besides, the TGI in the assay with SK-MEL-28 melanoma is greater than 100 µM; with TK-10 renal, greater than 100 µM; with SN12C renal it was greater than 100 µM; with HS 578T breast, greater than 100 µM; with SW-620 colon, 52.8 µM; in the assay on IGROV1 ovarian it was greater than 100 µM. The TGI in the assay on SK-MEL-5 melanoma and in the assay on MOLT-4 leukemia was greater than 100 µM each time.
As for `COc1ccc(-c2[nH]c3ccccc3c2CCNS(=O)(=O)c2ccc(C)cc2)cc1`, the TGI in the assay with SK-MEL-28 melanoma, with TK-10 renal, with SN12C renal, with HOP-92 NSCLC, with SW-620 colon and with IGROV1 ovarian was greater than 10 µM each time. Moreover, the TGI in the assay on SK-MEL-5 melanoma, with A498 renal and with MOLT-4 leukemia was greater than 10 µM in each case.
As for `CN=C1OC2(c3ccccc3)C3=C(OC(=NC)N2C)C(=O)OC3(c2ccccc2)N1C` (stereo unspecified), the TGI in the assay with SK-MEL-28 melanoma, in the assay on TK-10 renal, in the assay on SN12C renal, with HS 578T breast, with SW-620 colon and in the assay on IGROV1 ovarian was greater than 100 µM throughout. In addition, the TGI in the assay with SK-MEL-5 melanoma, with A498 renal and with MOLT-4 leukemia was greater than 100 µM each time.
Take `Fc1ccc(/C=N/n2c(-c3ccc(F)c(Cl)c3)n[nH]c2=S)cc1`: the GI50 in the assay on SK-MEL-28 melanoma was 42.1 µM; with TK-10 renal, 24.1 µM; in the assay with HS 578T breast, 28.8 µM; with HOP-92 NSCLC it was 15.1 µM; with SW-620 colon, 30.2 µM; in the assay on IGROV1 ovarian, 20.6 µM. The GI50 in the assay with SK-MEL-5 melanoma is 42.9 µM; in the assay with A498 renal, 13.8 µM; in the assay on MOLT-4 leukemia it was 25.4 µM. The TGI is greater than 100 µM in the assay with SK-MEL-28 melanoma; 51 µM in the assay on TK-10 renal; 97.3 µM with HS 578T breast; 34.6 µM with HOP-92 NSCLC; greater than 100 µM with SW-620 colon; 48.8 µM in the assay on IGROV1 ovarian. In addition, the TGI is greater than 100 µM with SK-MEL-5 melanoma, 31 µM in the assay on A498 renal and 94.6 µM in the assay on MOLT-4 leukemia.
As to `N#CC1(C#N)C(c2ccccc2)C=CC12OCCCO2` (stereo unspecified), the concentration for total growth inhibition (TGI) with SK-MEL-28 melanoma, with TK-10 renal, in the assay with SN12C renal, in the assay with HOP-92 NSCLC, in the assay with SW-620 colon and in the assay on IGROV1 ovarian was greater than 100 µM each time. For the same compound, the TGI with SK-MEL-5 melanoma is greater than 100 µM; in the assay with A498 renal, greater than 100 µM; with MOLT-4 leukemia it was 98.1 µM.
In the case of `Cc1ccc(NC(=O)C(=O)C(C(=O)/C=C/c2ccccc2)C2OC(=O)c3ccccc32)c(C)c1` (stereo unspecified), the TGI in the assay on SK-MEL-28 melanoma, with TK-10 renal, with SN12C renal, in the assay on HOP-92 NSCLC, in the assay with SW-620 colon and with IGROV1 ovarian was greater than 100 µM each time. For the same compound, the TGI in the assay on SK-MEL-5 melanoma, in the assay with A498 renal and in the assay with MOLT-4 leukemia was greater than 100 µM throughout.
For the compound `CC(CO)(Nc1ccc([N+](=O)[O-])cc1[N+](=O)[O-])C(=O)O` (stereo unspecified), the TGI with SK-MEL-28 melanoma is 43.5 µM; in the assay with TK-10 renal it was greater than 100 µM; in the assay on SN12C renal it was 39.4 µM; in the assay on HS 578T breast, 46.3 µM; with SW-620 colon, 33.4 µM; in the assay with IGROV1 ovarian, 53.7 µM. This compound came in with a TGI with SK-MEL-5 melanoma of 44.5 µM.
In the case of `COc1ccc(-c2cc(=O)c3c(O)cccc3o2)c(OC)c1OC`, the TGI with SK-MEL-28 melanoma, with TK-10 renal, in the assay on SN12C renal, in the assay with HOP-92 NSCLC, in the assay on SW-620 colon and in the assay on IGROV1 ovarian was greater than 100 µM each time. Further, the TGI in the assay with SK-MEL-5 melanoma is greater than 100 µM; with A498 renal it was 82.9 µM; with MOLT-4 leukemia, greater than 100 µM.
